# Reference: patent US20050182084A1, “Method for treating erectile dysfunction” (FUJISAWA PHARMACEUTICAL CO., LTD., priority 2004, published 2005)
# System: rat cavernous nerve injury model
# Assay: recovery of erectile function in rat cavernous nerve injury model (intracavernous pressure)
# Assay type: in vivo
# Method: Effect of the compound (Ia) on erectile dysfunction was confirmed by a rat cavernous nerve injury model.
# • (1) The recovery of erectile function after cavernous nerve injury was basically assessed in a similar manner to that of BJU International 92, 470-475 (2003). • (2) The compound (Ia), in a form of the solution which was prepared in a similar manner to that of Example 1 mentioned above, or its placebo was given to rats, from 1 day after surgery to 1 day before harvesting for 8 weeks, subcutaneously after being diluted with a suitable amount of HCO-60/EtOH in physiological saline.
smiles,measurement,setting,value
CO[C@H]1C[C@@H](C)C/C(C)=C/[C@@H](CC(C)=O)C(=O)C[C@H](O)[C@@H](C)[C@@H](/C(C)=C/[C@@H]2CC[C@@H](O)[C@H](OC)C2)OC(=O)[C@@H]2CCCCN2C(=O)C(=O)[C@]2(O)O[C@H]1[C@@H](OC)C[C@H]2C [Compound (Ia)],effect on intracavernous pressure (in words),"rat cavernous nerve injury model, conclusion from Table 1",remarkable recovery effect on intracavernous pressure
same,Peak intracavernous pressure(cm H2O) mean ± S.E.,"rat, cavernous nerve injury, 1 mg/kg subcutaneously, from 1 day after surgery for 8 weeks, n = 7, **P < 0.01 v.s. vehicle-treated (Dunnett's post-test)",97.4 ± 8.0** cm H2O
